Reference: US11827657B2, “Boron containing pyrazole compounds, compositions comprising them, methods and uses thereof” (BOEHRINGER INGELHEIM ANIMAL HEALTH USA INC., priority 2020, dated 2023)

What follows are compounds tested against JAK1 (Homo sapiens, UniProt P23458) (assay: Biochemical Kinase Assay (JAK), 33P-ATP filter-binding). Conditions: Biochemical Kinase Inhibition Assay; potency level of IC50; read-out: JAK1 (range).
Procedure: Biochemical Kinase Assay Protocol (JAK) • Reagent: Base Reaction buffer; 20 mM Hepes (pH 7.5), 10 mM MgCl2, 1 mM EGTA, 0.02% Brij™ 35, 0.02 mg/ml BSA, 0.1 mM Na3VO4, 2 mM DTT, 1% DMSO, where required cofactors were added individually to each kinase reaction.
Reaction Procedure: • 1. Prepared indicated substrate in freshly prepared Base Reaction Buffer • 2. Delivered any required cofactors to the substrate solution above • 3. Delivered indicated kinase into the substrate solution and gently mix • 4. Delivered compounds in DMSO into the kinase reaction mixture by Acoustic technology (Echo550; nanoliter range), incubated for 20 minutes at room temperature • 5. Delivered 33P-ATP into the reaction mixture to initiate the reaction. • 6. Incubated kinase reaction for 2 hours at room temperature • 7. Reactions were spotted onto P81 ion exchange paper • 8. Detected kinase activity by filter-binding method.
Compounds according to the present invention were tested in the Biochemical Kinase Assay Protocol. The results are provided below in Table 1, wherein the potency levels A, B, and C in the columns labeled JAK1 (range) correspond to IC50 as follows: A<10 nM; B=10-50 nM and C>50 nM. The Example Number entries formatted ##a represent stereoisomer one and entries formatted ##b represent stereoisomer two.

Chain of JAK1 (P23458 whole entry, species assumed): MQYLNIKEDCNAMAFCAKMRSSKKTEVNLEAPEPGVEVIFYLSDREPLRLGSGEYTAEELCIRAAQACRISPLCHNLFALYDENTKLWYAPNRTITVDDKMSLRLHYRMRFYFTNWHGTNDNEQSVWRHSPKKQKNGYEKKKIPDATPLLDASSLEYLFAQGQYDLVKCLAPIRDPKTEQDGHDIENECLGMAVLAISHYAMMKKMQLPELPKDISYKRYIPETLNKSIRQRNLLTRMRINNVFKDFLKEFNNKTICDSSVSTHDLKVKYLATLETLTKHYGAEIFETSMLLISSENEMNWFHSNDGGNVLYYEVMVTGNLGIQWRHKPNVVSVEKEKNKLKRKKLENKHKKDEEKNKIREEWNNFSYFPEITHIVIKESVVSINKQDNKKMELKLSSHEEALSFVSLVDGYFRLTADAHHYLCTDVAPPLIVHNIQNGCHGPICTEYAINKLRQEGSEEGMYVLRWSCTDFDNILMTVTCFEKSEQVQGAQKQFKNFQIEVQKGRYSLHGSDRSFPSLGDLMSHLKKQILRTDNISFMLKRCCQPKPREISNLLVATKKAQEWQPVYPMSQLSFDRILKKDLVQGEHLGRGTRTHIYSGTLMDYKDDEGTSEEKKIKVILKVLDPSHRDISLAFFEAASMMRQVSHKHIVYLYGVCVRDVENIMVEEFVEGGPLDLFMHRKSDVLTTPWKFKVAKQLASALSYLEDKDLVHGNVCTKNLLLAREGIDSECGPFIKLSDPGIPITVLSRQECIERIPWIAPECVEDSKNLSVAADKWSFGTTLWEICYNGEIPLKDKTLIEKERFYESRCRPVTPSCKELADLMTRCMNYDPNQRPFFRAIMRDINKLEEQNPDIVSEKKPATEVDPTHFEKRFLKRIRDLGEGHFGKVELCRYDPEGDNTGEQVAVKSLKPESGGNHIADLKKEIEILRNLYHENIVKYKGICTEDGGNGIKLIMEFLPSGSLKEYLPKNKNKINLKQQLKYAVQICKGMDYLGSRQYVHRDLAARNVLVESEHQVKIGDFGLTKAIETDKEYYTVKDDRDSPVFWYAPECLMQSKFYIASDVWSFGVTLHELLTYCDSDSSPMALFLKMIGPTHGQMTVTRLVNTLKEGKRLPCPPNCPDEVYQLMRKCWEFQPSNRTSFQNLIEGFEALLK

Structure (SMILES)	IC50 [nM]
CC(C)C1=Cc2cc(Nc3nn([C@@H]4CCC[C@H]4C#N)cc3C(N)=O)ccc2OB1O (relative stereo) [Example 50, 1-(trans-2-cyanocyclopentyl)-3-[(2-hydroxy-3-isopropyl-1,2-benzoxaborinin-6-yl)amino]pyrazole-4-carboxamide]	< 10
N#C[C@@H]1CCOC[C@H]1n1cc(C(N)=O)c(Nc2ccc3c(c2)C2CC2B(O)O3)n1 (relative stereo) [Example 57, 1-(trans-4-cyanotetrahydro-2H-pyran-3-yl)-3-[(2-hydroxy-1a,7b-dihydro-1H-cyclopropa[c][1,2]benzoxaborinin-6-yl)amino]pyrazole-4-carboxamide]	< 10
Cc1cc(Nc2nn(C3COCCC3C#N)cc2C(N)=O)cc2c1B(O)OC2 (single isomer, unassigned) [Example 6a, 1-[trans-4-cyanotetrahydropyran-3-yl]-3-[(1-hydroxy-7-methyl-3H-2,1-benzoxaborol-5-yl)amino] pyrazole-4-carboxamide (stereoisomerone)]	< 10
Cc1cc(Nc2nn(C3COCCC3C#N)cc2C(N)=O)cc2c1B(O)OC2 (single isomer, unassigned) [Example 6b, 1-[trans-4-cyanotetrahydropyran-3-yl]-3-[(1-hydroxy-7-methyl-3H-2,1-benzoxaborol-5-yl)amino]pyrazole-4-carboxamide (stereoisomer two)]	10 to 50
N#C[C@@H]1CCOC[C@H]1n1cc(C(N)=O)c(Nc2ccc3c(c2)B(O)OC3)n1 (single isomer, unassigned) [Example 16a, 1-(trans-4-cyanotetrahydro-2H-pyran-3-yl)-3-((1-hydroxy-1,3-dihydrobenzo[c][1,2]oxaborol-6-yl)amino)-1H-pyrazole-4-carboxamide]	> 50
N#C[C@@H]1CCOC[C@H]1n1cc(C(N)=O)c(Nc2ccc3c(c2)B(O)OC3)n1 (single isomer, unassigned) [Example 16b, 1-(trans-4-cyanotetrahydro-2H-pyran-3-yl)-3-((1-hydroxy-1,3-dihydrobenzo[c][1,2]oxaborol-6-yl)amino)-1H-pyrazole-4-carboxamide]	< 10
CC1=C(C)c2cc(Nc3nn([C@@H]4COCC[C@H]4C#N)cc3C(N)=O)cc(C)c2OB1O (single isomer, unassigned) [Example 23a, 1-[trans-4-cyanotetrahydro-2H-pyran-3-yl]-3-[(2-hydroxy-3,4,8-trimethyl-1,2-benzoxaborinin-6-yl)amino]pyrazole-4-carboxamide]	< 10
CC1=C(C)c2cc(Nc3nn([C@@H]4COCC[C@H]4C#N)cc3C(N)=O)cc(C)c2OB1O (single isomer, unassigned) [Example 23b, 1-[trans-4-cyanotetrahydro-2H-pyran-3-yl]-3-[(2-hydroxy-3,4,8-trimethyl-1,2-benzoxaborinin-6-yl)amino]pyrazole-4-carboxamide]	> 50
CC(C)C1=CB(O)Oc2ccc(Nc3nn([C@@H]4COCC[C@H]4C#N)cc3C(N)=O)cc21 (single isomer, unassigned) [Example 30a, 1-[trans-4-cyanotetrahydro-2H-pyran-3-yl]-3-[(2-hydroxy-4-isopropyl-1,2-benzoxaborinin-6-yl)amino]pyrazole-4-carboxamide]	> 50
CC(C)C1=CB(O)Oc2ccc(Nc3nn([C@@H]4COCC[C@H]4C#N)cc3C(N)=O)cc21 (single isomer, unassigned) [Example 30b, 1-[trans-4-cyanotetrahydro-2H-pyran-3-yl]-3-[(2-hydroxy-4-isopropyl-1,2-benzoxaborinin-6-yl)amino]pyrazole-4-carboxamide]	< 10
CC1(C)OB(O)c2cc(Nc3nn([C@@H]4COCC[C@H]4C#N)cc3C(N)=O)ccc21 (single isomer, unassigned) [Example 36a, 1-[trans-4-cyanotetrahydro-2H-pyran-3-yl]-3-[(1-hydroxy-3,3-dimethyl-2,1-benzoxaborol-6-yl)amino]pyrazole-4-carboxamide]	< 10
CC1(C)OB(O)c2cc(Nc3nn([C@@H]4COCC[C@H]4C#N)cc3C(N)=O)ccc21 (single isomer, unassigned) [Example 36b, 1-[trans-4-cyanotetrahydro-2H-pyran-3-yl]-3-[(1-hydroxy-3,3-dimethyl-2,1-benzoxaborol-6-yl)amino]pyrazole-4-carboxamide]	< 10

Other lines, results leading:

IC50 [nM]	Structure (SMILES)
10 to 50	N#C[C@@H]1CCOC[C@H]1n1cc(C(N)=O)c(Nc2ccc3c(c2F)C=CB(O)O3)n1 (relative stereo) [Example 54, 1-(trans-4-cyanotetrahydro-2H-pyran-3-yl)-3-[(5-fluoro-2-hydroxy-1,2-benzoxaborinin-6-yl)amino]pyrazole-4-carboxamide]
< 10	CCC1=Cc2cc(Nc3nn([C@@H]4COCC[C@H]4C#N)cc3C(N)=O)ccc2OB1O (relative stereo) [Example 56, 1-(trans-4-cyanotetrahydro-2H-pyran-3-yl)-3-[(3-ethyl-2-hydroxy-1,2-benzoxaborinin-6-yl)amino]pyrazole-4-carboxamide]
< 10	CC1=CB(O)Oc2ccc(Nc3nn(C4COCCC4C#N)cc3C(N)=O)cc21 (single isomer, unassigned) [Example 3a, 1-[trans-4-cyanotetrahydro-2H-pyran-3-yl]-3-[(2-hydroxy-4-methyl-1,2-benzoxaborinin-6-yl)amino]pyrazole-4-carboxamide (stereoisomerone)]
10 to 50	CC1=CB(O)Oc2ccc(Nc3nn(C4COCCC4C#N)cc3C(N)=O)cc21 (single isomer, unassigned) [Example 3b, 1-[trans-4-cyanotetrahydropyran-3-yl]-3-[(2-hydroxy-4-methyl-1,2-benzoxaborinin-6-yl)amino]pyrazole-4-carboxamide (stereoisomer two)]
< 10	N#C[C@@H]1CCOC[C@H]1n1cc(C(N)=O)c(Nc2cc(Cl)c3c(c2)C=CB(O)O3)n1 (single isomer, unassigned) [Example 13a, 3-[(8-chloro-2-hydroxy-1,2-benzoxaborinin-6-yl)amino]-1-[trans-4-cyanotetrahydro-2H-pyran-3-yl]pyrazole-4-carboxamide]
< 10	N#C[C@@H]1CCOC[C@H]1n1cc(C(N)=O)c(Nc2cc(Cl)c3c(c2)C=CB(O)O3)n1 (single isomer, unassigned) [Example 13b, 3-[(8-chloro-2-hydroxy-1,2-benzoxaborinin-6-yl)amino]-1-[trans-4-cyanotetrahydro-2H-pyran-3-yl]pyrazole-4-carboxamide]
< 10	CC1=Cc2cc(Nc3nn([C@@H]4COCC[C@H]4C#N)cc3C(N)=O)cc(F)c2OB1O (single isomer, unassigned) [Example 14a, 1-[trans-4-cyanotetrahydro-2H-pyran-3-yl]-3-[(8-fluoro-2-hydroxy-3-methyl-1,2-benzoxaborinin-6-yl)amino]pyrazole-4-carboxamide]
10 to 50	CC1=Cc2cc(Nc3nn([C@@H]4COCC[C@H]4C#N)cc3C(N)=O)cc(F)c2OB1O (single isomer, unassigned) [Example 14b, 1-[trans-4-cyanotetrahydro-2H-pyran-3-yl]-3-[(8-fluoro-2-hydroxy-3-methyl-1,2-benzoxaborinin-6-yl)amino]pyrazole-4-carboxamide]
> 50	Cc1c(Nc2nn([C@@H]3COCC[C@H]3C#N)cc2C(N)=O)ccc2c1C=CB(O)O2 (single isomer, unassigned) [Example 17a, 1-[trans-4-cyanotetrahydro-2H-pyran-3-yl]-3-[(2-hydroxy-5-methyl-1,2-benzoxaborinin-6-yl)amino]pyrazole-4-carboxamide]
> 50	Cc1c(Nc2nn([C@@H]3COCC[C@H]3C#N)cc2C(N)=O)ccc2c1C=CB(O)O2 (single isomer, unassigned) [Example 17b, 1-[trans-4-cyanotetrahydropyran-3-yl]-3-[(2-hydroxy-5-methyl-1,2-benzoxaborinin-6-yl)amino]pyrazole-4-carboxamide]
10 to 50	Cc1cc(Nc2nn([C@@H]3COCC[C@H]3C#N)cc2C(N)=O)cc2c1OB(O)C=C2 (single isomer, unassigned) [Example 27a, 1-[trans-4-cyanotetrahydropyran-3-yl]-3-[(2-hydroxy-8-methyl-1,2-benzoxaborinin-6-yl)amino]pyrazole-4-carboxamide]
< 10	Cc1cc(Nc2nn([C@@H]3COCC[C@H]3C#N)cc2C(N)=O)cc2c1OB(O)C=C2 (single isomer, unassigned) [Example 27b, 1-[trans-4-cyanotetrahydropyran-3-yl]-3-[(2-hydroxy-8-methyl-1,2-benzoxaborinin-6-yl)amino]pyrazole-4-carboxamide]
> 50	N#C[C@@H]1CCOC[C@H]1n1cc(C(N)=O)c(Nc2cc3c(c(C(F)(F)F)c2)OB(O)C=C3)n1 (single isomer, unassigned) [Example 28a, 1-[trans-4-cyanotetrahydro-2H-pyran-3-yl]-3-[[2-hydroxy-8-(trifluoromethyl)-1,2-benzoxaborinin-6-yl]amino]pyrazole-4-carboxamide]
< 10	N#C[C@@H]1CCOC[C@H]1n1cc(C(N)=O)c(Nc2cc3c(c(C(F)(F)F)c2)OB(O)C=C3)n1 (single isomer, unassigned) [Example 28b, 1-[trans-4-cyanotetrahydro-2H-pyran-3-yl]-3-[[2-hydroxy-8-(trifluoromethyl)-1,2-benzoxaborinin-6-yl]amino]pyrazole-4-carboxamide]
